For 14 molecules, Ki results are on record in US6642227B2, “Inhibitors of c-Jun N-terminal kinases (JNK) and other protein kinases” (Vertex Pharmaceuticals Incorporated, priority 2001, dated 2003).

One experiment deals with human Lck kinase (UniProt P06239). Description: Lck inhibition assay (A: radioactivity-based or B: spectrophotometric coupled-enzyme assay). Particulars: read-out: Lck Activity (Ki rating). In kind it is biochemical. As to the method: The compounds were evaluated as inhibitors of human Lck kinase using either a radioactivity-based assay or spectrophotometric assay.
The compounds were assayed as inhibitors of full length bovine thymus Lck kinase (from Upstate Biotechnology, cat. no. 14-106) expressed and purified from baculo viral cells. Lck kinase activity was monitored by following the incorporation of ^33p from ATP into the tyrosine of a random poly Glu-Tyr polymer substrate of composition, Glu:Tyr=4:1 (Sigma, cat. no. P-0275). The following were the final concentrations of the assay components: 0.025 M HEPES, pH 7.6, 10 mM MgCl2, 2 mM DTT, 0.25 mg/ml BSA, 10 μM ATP (1-2 μCi ^33P-ATP per reaction), 5 mg/ml poly Glu-Tyr, and 1-2 units of recombinant human […] kinase. In a typical assay, all the reaction components with the exception of ATP were pre-mixed and aliquoted into assay plate wells. Inhibitors dissolved in DMSO were added to the wells to give a final DMSO concentration of 2.5%. The assay plate was incubated at 30 C. for 10 min before initiating the reaction with ^33P-ATP. After 20 min of reaction, the reactions were quenched with 150 μl of 10% trichloroacetic acid (TCA) containing 20 mM Na3PO4. The quenched samples were then transferred to a 96-well filter plate (Whatman, UNI-Filter GF/F Glass Fiber Filter, cat no. 7700-3310) installed on a filter plate vacuum manifold. Filter plates were washed four times with 10% TCA containing 20 mM Na3PO4 and then 4 times with methanol. 200 μl of scintillation fluid was then added to each well. The plates were sealed and the amount of radioactivity associated with the filters was quantified on a TopCount scintillation counter. The radioactivity incorporated was plotted as a function of the inhibitor concentration. The data was fitted to a competitive inhibition kinetics model to get the Ki for the compound.
The ADP produced from ATP by the human recombinant Lck kinase-catalyzed phosphorylation of poly Glu-Tyr substrate was quanitified using a coupled enzyme assay (Fox et al (1998) Protein Sci 7, 2249). In this assay one molecule of NADH is oxidised to NAD for every molecule of ADP produced in the kinase reaction. The disappearance of NADH can be conveniently followed at 340 nm.
The following were the final concentrations of the assay components: 0.025 M HEPES, pH 7.6, 10 mM MgCl2, 2 mM DTT, 5 mg/ml poly Glu-Tyr, and 50 nM of recombinant human Lck kinase. Final concentrations of the components of the coupled enzyme system were 2.5 mM phosphoenolpyruvate, 200 μM NADH, 30 μg/ml pyruvate kinase and 10 μg/ml lactate dehydrogenase.
In a typical assay, all the reaction components with the exception of ATP were pre-mixed and aliquoted into assay plate wells. Inhibitors dissolved in DMSO were added to the wells to give a final DMSO concentration of 2.5%. The assay plate was incubated at 30° C. for 10 min before initiating the reaction with 150 μM ATP. The absorbance change at 340 nm with time, the rate of the reaction, was monitored on a molecular devices plate reader. The data of rate as a function of the inhibitor concentration was fitted to competitive inhibition kinetics model to get the Ki for the compound.

Another experiment has as its target T1, human Src kinase (Homo sapiens, UniProt P12931).
T1 construct: full length recombinant human Src kinase; purchased Upstate Biotechnology 14-117; host or cells: baculovirus-infected cells
Description: Src inhibition assay (A: radioactivity-based or B: spectrophotometric coupled-enzyme assay). In kind it is biochemical. As to conditions: assay A or B not specified; read-out: Src Activity (Ki class A-C). As to the method: The compounds were evaluated as inhibitors of human Src kinase using either a radioactivity-based assay or spectrophotometric assay.
The compounds were assayed as inhibitors of full length recombinant human Src kinase (from Upstate Biotechnology, cat. no. 14-117) expressed and purified from baculo viral cells. Src kinase activity was monitored by following the incorporation of ^33p from ATP into the tyrosine of a random poly Glu-Tyr polymer substrate of composition, Glu:Tyr=4:1 (Sigma, cat. no. P-0275). The following were the final concentrations of the assay components: 0.05 M HEPES, pH 7.6, 10 mM MgCl2, 2 mM DTT, 0.25 mg/ml BSA, 10 μM ATP (1-2 uCi ^33P-ATP per reaction), 5 mg/ml poly Glu-Tyr, and 1-2 units of recombinant human Src kinase. In a typical assay, all the reaction components with the exception of ATP were pre-mixed and aliquoted into assay plate wells.
Inhibitors dissolved in DMSO were added to the wells to give a final DMSO concentration of 2.5%. The assay plate was incubated at 30° C. for 10 min before initiating the reaction with ^33P-ATP. After 20 min of reaction, the reactions were quenched with 150 μl of 10% trichloroacetic acid (TCA) containing 20 mM Na3PO4. The quenched samples were then transferred to a 96-well filter plate (Whatman, UNI-Filter GF/F Glass Fiber Filter, cat no. 7700-3310) installed on a filter plate vacuum manifold. Filter plates were washed four times with 10% TCA containing 20 mM Na3PO4 and then 4 times with methanol. 200 μl of scintillation fluid was then added to each well. The plates were sealed and the amount of radioactivity associated with the filters was quantified on a TopCount scintillation counter. The radioactivity incorporated was plotted as a function of the inhibitor concentration. The data was fitted to a competitive inhibition kinetics model to get the Ki for the compound.
The ADP produced from ATP by the human recombinant Src kinase-catalyzed phosphorylation of poly Glu-Tyr substrate was quanitified using a coupled enzyme assay (Fox et al (1998) Protein Sci 7, 2249). In this assay one molecule of NADH is oxidised to NAD for every molecule of ADP produced in the kinase reaction. The disappearance of NADH can be conveniently followed at 340 nm.
The following were the final concentrations of the assay components: 0.025 M HEPES, pH 7.6, 10 mM MgCl2, 2 mM DTT, 0.25 mg/ml poly Glu-Tyr, and 25 nM of recombinant human Src kinase. Final concentrations of the components of the coupled enzyme system were 2.5 mM phosphoenolpyruvate, 200 μM NADH, 30 μg/ml pyruvate kinase and 10 μg/ml lactate dehydrogenase.
In a typical assay, all the reaction components with the exception of ATP were pre-mixed and aliquoted into assay plate wells. Inhibitors dissolved in DMSO were added to the wells to give a final DMSO concentration of 2.5%. The assay plate was incubated at 30 C. for 10 min before initiating the reaction with 100 μM ATP. The absorbance change at 340 nm with time, the rate of the reaction, was monitored on a molecular devices plate reader. The data of rate as a function of the inhibitor concentration was fitted to compettive inhibition kinetics model to get the Ki for the compound.

Some results are limits rather than exact numbers.

T1 sequence (P12931 whole entry): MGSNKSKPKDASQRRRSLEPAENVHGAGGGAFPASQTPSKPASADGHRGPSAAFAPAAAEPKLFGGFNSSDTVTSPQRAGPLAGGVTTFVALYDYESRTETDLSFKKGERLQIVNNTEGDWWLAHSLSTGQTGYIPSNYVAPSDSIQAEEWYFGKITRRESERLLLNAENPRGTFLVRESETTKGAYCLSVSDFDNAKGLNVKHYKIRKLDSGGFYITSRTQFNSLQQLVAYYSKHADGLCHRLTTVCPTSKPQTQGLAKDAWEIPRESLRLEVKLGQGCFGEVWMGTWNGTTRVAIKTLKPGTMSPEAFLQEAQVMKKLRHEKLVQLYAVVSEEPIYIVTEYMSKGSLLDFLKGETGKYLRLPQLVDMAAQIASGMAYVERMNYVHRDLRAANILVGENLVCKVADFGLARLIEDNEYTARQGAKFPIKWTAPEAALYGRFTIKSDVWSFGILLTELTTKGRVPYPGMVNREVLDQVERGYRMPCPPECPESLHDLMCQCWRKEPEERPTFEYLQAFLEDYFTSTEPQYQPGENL

Turning to `N#Cc1c(O)sc(-c2ccnc(Nc3cccc(OCc4ccccc4)c3)n2)c1-c1ccccc1` [IIa-42, 5-[2-(3-Benzyloxy-phenylamino)-pyrimidin-4-yl]-2-hydroxy-4-phenyl-thiophene-3-carbonitrile], the Ki at human Lck kinase and at human Src kinase was less than 100 nM each time.
Take `CCNc1sc(-c2ccnc(Nc3cccc(OC)c3)n2)c(-c2ccccc2)c1C(=O)OCC` [IIa-90, 2-Ethylamino-5-[2-(3-methoxy-phenylamino)-pyrimidin-4-yl]-4-phenyl-thiophene-3-carboxylic acid ethyl ester]: the Ki (as a rule, a dissociation constant, usually derived from enzyme kinetics or from competition with a known ligand) on human Lck kinase is 100 to 1000 nM; on human Src kinase, more than 1000 nM.
On the same counts, the results for `COCCNCCCOc1cccc(Nc2ncc(C)c(-c3sc(SC)c(C#N)c3-c3cccnc3)n2)c1` [VI-20] are less than 100 nM and less than 100 nM.
For `CSc1sc(-c2nc(Nc3cccc(OCCCN4CCC[C@H]4CO)c3)ncc2C)c(-c2cccnc2)c1C#N` [VI-24], in that order: less than 100 nM and less than 100 nM.
On the same counts, the results for `CSc1sc(-c2nc(Nc3cccc(OCCCN4CCOCC4)c3)ncc2C)c(-c2cccnc2)c1C#N` [VI-117] are 100 to 1000 nM and 100 to 1000 nM.
`CSc1sc(-c2nc(Nc3cccc(OCCCN4CCNCC4)c3)ncc2C)c(-c2cccnc2)c1C#N` [VI-118]: the Ki was less than 100 nM on human Lck kinase and 100 to 1000 nM at human Src kinase.
For `CSc1sc(-c2nc(Nc3cccc(OCCNCCO)c3)ncc2C)c(-c2cccnc2)c1C#N` [VI-119], in that order: less than 100 nM and 100 to 1000 nM.
For the molecule `CSc1sc(-c2nc(Nc3cccc(OCCN4CCC(CO)CC4)c3)ncc2C)c(-c2cccnc2)c1C#N` [VI-120], the Ki on human Lck kinase and at human Src kinase was less than 100 nM each time.
Regarding `CSc1sc(-c2ccnc(Nc3cccc(NC(=O)CCCNC(C)=O)c3)n2)c(-c2cccnc2)c1C#N` [VI-130], the Ki at human Lck kinase and at human Src kinase was less than 100 nM in each case.
`CSc1sc(-c2ccnc(Nc3cccc(OCCCNCCO)c3)n2)c(-c2cccc(OCc3ccccc3)c2)c1C#N` [VI-132]: the Ki was less than 100 nM at human Lck kinase and 100 to 1000 nM at human Src kinase.
For `CSc1sc(-c2ccnc(Nc3cccc(OCCCNCCCO)c3)n2)c(-c2cccc(OCc3ccccc3)c2)c1C#N` [VI-133], in that order: less than 100 nM and less than 100 nM.
For the molecule `CSc1sc(-c2ccnc(Nc3cccc(OCCCNCCO)c3)n2)c(-c2cccc(O)c2)c1C#N` [VI-134], the Ki at human Lck kinase and at human Src kinase was less than 100 nM in each case.
For the molecule `CSc1sc(-c2ccnc(Nc3cccc(OCCCNCCCO)c3)n2)c(-c2cccc(O)c2)c1C#N` [VI-135], the Ki on human Lck kinase and at human Src kinase was less than 100 nM in each case.
For the molecule `CCCCS(=O)(=O)Nc1cccc(Nc2nccc(-c3sc(SC)c(C#N)c3-c3cccnc3)n2)c1` [VI-141], the Ki on human Lck kinase and on human Src kinase was less than 100 nM throughout.
